Among the data in US20030114469A1, “Combinations” (priority 2001, published 2003) are IC50 values, retold here.

SMILES strings stand for the structures.

The first assay deals with T1, human PDE5, partially purified from human platelets (Homo sapiens, UniProt O76074).
T1 construct: human PDE5, partially purified from human platelets; from tissue; host or cells: human platelets
Nature of the assay: PDE5 Assay (SPA, 3H-cGMP). In kind it is biochemical.
Conditions: not given
How it is done: 10 μL of each of these solutions is transferred to a selected well of a 96-well Optiplate microtitre plate (e.g., Packard). To determine total binding, 10 μL of aqueous 20% v/v DMSO is added to other selected wells. To determine non-specific binding, a 10 mM solution of sildenafil in 100% DMSO is diluted 20-fold with aqueous 20% v/v DMSO and 10 μL of the resulting solution is added to further selected wells of the Optiplate plate. […] (The PDE Assay Buffer is prepared by dissolving Tris-base (7.56 g) in water (800 mL), adding 1 M aqueous MgCl2 (10.325 mL) and 0.5 M EDTA (4.25 mL), adjusting the pH to 7.5 with 1N hydrochloric acid and making up to 1 L with water). A solution of human PDE5, partially purified from human platelets (11 μL, containing 0.017 units of PDE5 per mL, where 1 unit hydrolyses 1.0 μmole of 3′,5′-cyclic GMP to 5′-GMP per minute at pH 7.5 at 37° C.), in 20 mM Hepes, pH 7.4, 100 mM sodium chloride, 10% v/v glycerol, 1 mM benzamidine and 2 mM dithiotherietol, is diluted 200-fold, with Enzyme Buffer prepared by adding 0.5 M EDTA (2 mL) to a solution of Tris-Base (1.21 g) in water (800 mL), adjusting the pH to 7.5 with 1N HCl and making up to 1 L with water. The diluted PDE5 solution (10 μL) is added to all wells containing test compound, aqueous DMSO or sildenafil solution. The plate is incubated at room temperature for 1 hour. Fifty (50) μL of a suspension of 500 mg PDE Yttrium silicate SPA beads (e.g., Amersham) in 28 mL water is added to each of the wells and the plate is incubated for a further 20 minutes and then sealed using Top Seal-S (e.g., Packard) according to the manufacturer's instructions. The resulting scintillations are counted using a Canberra Packard Top Count (1 minute per well), as a measure of the extent to which binding of PDE5 to the beads is inhibited.
Turning to `COc1cc2cncc(Cc3nc4c([nH]3)c(=O)n(C)c(=O)n4CC(C)CO)c2cc1OC` (stereo not shown) [Example 68, 8-(6,7-dimethoxy-isoquinolin-4-ylmethyl)-3-(3-hydroxy-2-methyl-propyl)-1-methyl-3,7-dihydro-purine-2,6-dione], the IC50 stood at 7 nM.

Regarding `COc1cc2cncc(Cc3nc4c([nH]3)c(=O)n(C)c(=O)n4CC(C)(C)C)c2cc1OC` [Example 15], the IC50 was 6 nM.

`COc1cc2c(Cc3nc4c([nH]3)c(=O)n(C)c(=O)n4CC(C)C)cnc(C)c2cc1OC` [Example 7, 8-(6,7-dimethoxy-1-methyl-isoquinolin-4-ylmethyl)-3-isobutyl-1-methyl-3,7-dihydro-purine-2,6-dione] came in with an IC50 of 7 nM.

Take `COc1cc2cncc(Cc3nc4c([nH]3)c(=O)n(C)c(=O)n4CC(C)C)c2cc1OC` [Example 10, 8-(6,7-dimethoxy-isoquinolin-4-ylmethyl)-3-isobutyl-1-methyl-3,7-dihydro-purine-2,6-dione]: the IC50 turned out to be 10 nM.

With `COc1ccc2cncc(Cc3nc4c([nH]3)c(=O)n(C)c(=O)n4CC(C)C)c2c1` [Example 45, 3-isobutyl-8-(6-methoxy-isoquinolin-4-ylmethyl)-1-methyl-3,7-dihydro-purine-2,6-dione], the IC50 turned out to be 2 nM.

The assay is the same for the next values; noted with them: human platelet PDE5, 3H-cGMP, room temperature 1 hour, yttrium silicate SPA beads; read-out: IC50 (concentration of test compound at which 50% inhibition of PDE5 binding to the beads occurs).
For the molecule `COc1ccc2cncc(Cc3nc4c([nH]3)c(=O)n(C)c(=O)n4CC3CC3)c2c1` [Example 49], the IC50 turned out to be 3.7 nM.

Consider `COc1cc2cncc(Cc3nc4c([nH]3)c(=O)n(C)c(=O)n4Cc3ccc(NS(=O)(=O)N(C)C)cc3)c2cc1OC` [Example 60], for which the IC50 was found to be 2.8 nM.

Take `COc1cc2cncc(Cc3nc4c(=O)n(C)c(=O)n(CC5(C)CC5)c4[nH]3)c2cc1OC` [Example 70, 8-(6,7-dimethoxy-isoquinolin-4-ylmethyl)-1-methyl-3-(1-methyl-cyclopropylmethyl)-3,9-dihydro-purine-2,6-dione]: the IC50 was determined as 9 nM.

Take `COc1cc2c(Cc3nc4c([nH]3)c(=O)n(C)c(=O)n4CC(C)C)cnc(Cl)c2cc1OC` [Example 35, 8-(1-chloro-6,7-dimethoxy-isoquinolin-4-ylmethyl)-3-isobutyl-1-methyl-3,7-dihydro-purine-2,6-dione]: the IC50 came out at 10 nM.

For `C#Cc1ccc2cncc(Cc3nc4c([nH]3)c(=O)n(C)c(=O)n4CC(C)C)c2c1` [Example 55, 8-(6-ethynyl-isoquinolin-4-ylmethyl)-3-isobutyl-1-methyl-3,7-dihydro-purine-2,6-dione], the IC50 is 5.5 nM.
